Measured values from ChEMBL document CHEMBL1201862, “PubChem BioAssay data set” (2004).
Values belong to the molecule of their own block, whether it stands above or below them. Activity calls are given as the source filed them.

What was measured:
[1] = molecular target: T1, Neuropeptides B/W receptor type 1 (Homo sapiens, UniProt P48145); assay: GPR7 antagonist potency, late-stage follow-up, cell-based, fluorescence, dose response, set 5 (AID 588566); assay type: functional
T1 sequence (P48145 whole entry): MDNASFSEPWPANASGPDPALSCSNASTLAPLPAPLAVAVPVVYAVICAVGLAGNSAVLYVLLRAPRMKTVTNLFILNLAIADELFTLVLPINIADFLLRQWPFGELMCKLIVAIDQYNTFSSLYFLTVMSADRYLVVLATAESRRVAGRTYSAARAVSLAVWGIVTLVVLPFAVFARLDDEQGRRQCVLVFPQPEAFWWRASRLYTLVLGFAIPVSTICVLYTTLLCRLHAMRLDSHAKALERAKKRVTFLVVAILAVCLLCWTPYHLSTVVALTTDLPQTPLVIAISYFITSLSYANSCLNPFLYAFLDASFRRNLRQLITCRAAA

[2] = molecular target: Melanin-concentrating hormone receptor 1 (Homo sapiens, UniProt Q99705); assay: Late-stage fluorescence-based counterscreen for antagonists of the G-protein coupled receptor 7 (GPR7): cell-based dose response assay to identify antagonists of the melanin-concentrating hormone receptor 1 (MCHR1) Set 5.; assay type: functional
Melanin-concentrating hormone receptor 1, sequence (Q99705 whole entry): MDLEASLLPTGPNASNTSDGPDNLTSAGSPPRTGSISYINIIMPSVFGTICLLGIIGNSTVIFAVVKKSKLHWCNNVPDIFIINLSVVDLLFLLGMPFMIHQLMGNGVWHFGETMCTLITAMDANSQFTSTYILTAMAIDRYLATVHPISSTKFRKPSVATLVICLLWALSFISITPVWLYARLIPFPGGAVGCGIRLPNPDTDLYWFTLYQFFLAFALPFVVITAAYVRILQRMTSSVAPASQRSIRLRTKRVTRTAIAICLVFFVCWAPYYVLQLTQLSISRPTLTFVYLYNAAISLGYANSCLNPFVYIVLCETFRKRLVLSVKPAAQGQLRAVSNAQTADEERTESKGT

[3] = HEp-2 cell cytotoxicity, dose response, cytotoxicity control for RSV inhibitor project, HTS (AID 2410); assay type: functional; settings: human respiratory syncytial virus
[4] = molecular target: Luciferin 4-monooxygenase (Photinus pyralis, UniProt P08659); assay: firefly luciferase enzyme inhibitors, dose response, biochemical, luminescence (AID 1891)
Luciferin 4-monooxygenase, sequence (P08659 whole entry): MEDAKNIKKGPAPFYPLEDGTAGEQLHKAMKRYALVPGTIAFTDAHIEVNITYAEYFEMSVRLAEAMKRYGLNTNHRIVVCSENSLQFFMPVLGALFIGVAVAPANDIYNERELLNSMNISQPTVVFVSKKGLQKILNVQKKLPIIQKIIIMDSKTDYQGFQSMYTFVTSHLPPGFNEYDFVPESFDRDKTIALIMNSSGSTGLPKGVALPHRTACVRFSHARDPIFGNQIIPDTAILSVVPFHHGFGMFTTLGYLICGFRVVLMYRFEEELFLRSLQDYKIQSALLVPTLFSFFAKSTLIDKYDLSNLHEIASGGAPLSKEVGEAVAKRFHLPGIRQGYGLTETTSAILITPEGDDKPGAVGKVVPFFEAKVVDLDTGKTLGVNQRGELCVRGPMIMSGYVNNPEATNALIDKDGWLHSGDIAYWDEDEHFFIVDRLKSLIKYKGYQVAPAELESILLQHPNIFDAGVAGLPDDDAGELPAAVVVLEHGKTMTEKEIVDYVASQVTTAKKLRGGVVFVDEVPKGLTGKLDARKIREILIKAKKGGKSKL

[5] = Luminescence Cell-Based Dose Confirmation HTS to Identify Inhibitors of Platelet Dense Granule Release. [Related pubchem assays: 1663 (Primary HTS), 1678 (Summary of Project)]; assay type: functional
[6] = molecular target: Low molecular weight phosphotyrosine protein phosphatase (Homo sapiens, UniProt P24666); assay type: functional; settings: read-out: IC50_Mean;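 further: Dose-response confirmation assay measuring inhibition of LMPTP enzyme activity by fluorescence intensity read-out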
Low molecular weight phosphotyrosine protein phosphatase, sequence (P24666 whole entry): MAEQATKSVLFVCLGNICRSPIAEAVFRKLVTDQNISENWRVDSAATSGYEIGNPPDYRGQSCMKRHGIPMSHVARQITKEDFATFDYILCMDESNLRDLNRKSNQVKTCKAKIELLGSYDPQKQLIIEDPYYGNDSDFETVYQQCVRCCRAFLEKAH

[7] = molecular target: Induced myeloid leukemia cell differentiation protein Mcl-1 (Homo sapiens, UniProt Q07820); assay type: functional
Induced myeloid leukemia cell differentiation protein Mcl-1, sequence (Q07820 whole entry): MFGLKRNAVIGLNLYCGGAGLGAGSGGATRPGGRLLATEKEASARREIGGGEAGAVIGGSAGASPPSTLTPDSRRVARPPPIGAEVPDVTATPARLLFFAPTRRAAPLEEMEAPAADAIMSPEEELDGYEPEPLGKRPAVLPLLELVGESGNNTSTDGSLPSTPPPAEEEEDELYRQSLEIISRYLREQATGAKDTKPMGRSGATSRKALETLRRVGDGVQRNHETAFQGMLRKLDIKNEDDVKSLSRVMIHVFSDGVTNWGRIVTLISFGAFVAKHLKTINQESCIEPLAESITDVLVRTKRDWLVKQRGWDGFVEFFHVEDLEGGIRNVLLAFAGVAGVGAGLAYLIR

[8] = molecular target: 26S proteasome non-ATPase regulatory subunit 14 (Homo sapiens, UniProt O00487); assay: inhibition of proteasome subunit RPN11 – biochemical, fluorescence polarization, uHTS hits, confirmation (AID 602368); assay type: functional
26S proteasome non-ATPase regulatory subunit 14, sequence (O00487 whole entry): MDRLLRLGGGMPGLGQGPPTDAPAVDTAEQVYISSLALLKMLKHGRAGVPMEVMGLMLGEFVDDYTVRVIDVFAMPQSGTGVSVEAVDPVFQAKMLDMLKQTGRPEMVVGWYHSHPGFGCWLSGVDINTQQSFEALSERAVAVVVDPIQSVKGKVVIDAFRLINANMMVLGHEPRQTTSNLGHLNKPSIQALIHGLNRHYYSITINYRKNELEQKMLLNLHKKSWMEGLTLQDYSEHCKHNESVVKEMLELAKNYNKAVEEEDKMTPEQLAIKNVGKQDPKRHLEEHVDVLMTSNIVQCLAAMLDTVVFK

[9] = molecular target: 72 kDa type IV collagenase (Homo sapiens, UniProt P08253); assay: Dose Response validation of uHTS RPN11 inhibitor hits using a MMP-2 Fluorescence assay.; assay type: functional
72 kDa type IV collagenase, sequence (P08253 whole entry): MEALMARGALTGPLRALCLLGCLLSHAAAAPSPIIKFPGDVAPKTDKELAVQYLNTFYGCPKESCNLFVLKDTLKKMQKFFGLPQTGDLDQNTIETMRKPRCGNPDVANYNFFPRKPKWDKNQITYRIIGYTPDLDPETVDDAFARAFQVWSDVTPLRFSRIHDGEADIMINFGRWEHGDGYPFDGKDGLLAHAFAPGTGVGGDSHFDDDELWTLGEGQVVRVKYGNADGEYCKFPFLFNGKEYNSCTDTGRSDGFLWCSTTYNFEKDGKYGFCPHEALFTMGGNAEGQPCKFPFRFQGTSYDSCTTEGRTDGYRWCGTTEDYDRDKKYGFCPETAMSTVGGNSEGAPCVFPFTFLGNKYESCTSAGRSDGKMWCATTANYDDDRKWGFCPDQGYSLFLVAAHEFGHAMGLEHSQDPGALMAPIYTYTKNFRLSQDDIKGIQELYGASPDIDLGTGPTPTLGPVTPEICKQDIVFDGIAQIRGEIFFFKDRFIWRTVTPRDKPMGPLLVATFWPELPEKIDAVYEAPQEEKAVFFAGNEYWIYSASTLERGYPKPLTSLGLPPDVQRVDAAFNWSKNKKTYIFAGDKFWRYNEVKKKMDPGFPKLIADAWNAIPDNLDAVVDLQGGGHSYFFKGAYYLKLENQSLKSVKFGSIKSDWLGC

[10] = molecular target: Prothrombin (Bos taurus, UniProt P00735); assay: thrombin inhibition, dose response, biochemical, fluorescence polarization, uHTS hits (AID 602369); assay type: functional
[11] = molecular target: T2, Insulin-degrading enzyme (Homo sapiens, UniProt P14735); assay: activators of recombinant IDE enzyme, dose response, counter-screen for IDE activator project, biochemical, fluorescence polarization (AID 588681)
T2 sequence (P14735 whole entry): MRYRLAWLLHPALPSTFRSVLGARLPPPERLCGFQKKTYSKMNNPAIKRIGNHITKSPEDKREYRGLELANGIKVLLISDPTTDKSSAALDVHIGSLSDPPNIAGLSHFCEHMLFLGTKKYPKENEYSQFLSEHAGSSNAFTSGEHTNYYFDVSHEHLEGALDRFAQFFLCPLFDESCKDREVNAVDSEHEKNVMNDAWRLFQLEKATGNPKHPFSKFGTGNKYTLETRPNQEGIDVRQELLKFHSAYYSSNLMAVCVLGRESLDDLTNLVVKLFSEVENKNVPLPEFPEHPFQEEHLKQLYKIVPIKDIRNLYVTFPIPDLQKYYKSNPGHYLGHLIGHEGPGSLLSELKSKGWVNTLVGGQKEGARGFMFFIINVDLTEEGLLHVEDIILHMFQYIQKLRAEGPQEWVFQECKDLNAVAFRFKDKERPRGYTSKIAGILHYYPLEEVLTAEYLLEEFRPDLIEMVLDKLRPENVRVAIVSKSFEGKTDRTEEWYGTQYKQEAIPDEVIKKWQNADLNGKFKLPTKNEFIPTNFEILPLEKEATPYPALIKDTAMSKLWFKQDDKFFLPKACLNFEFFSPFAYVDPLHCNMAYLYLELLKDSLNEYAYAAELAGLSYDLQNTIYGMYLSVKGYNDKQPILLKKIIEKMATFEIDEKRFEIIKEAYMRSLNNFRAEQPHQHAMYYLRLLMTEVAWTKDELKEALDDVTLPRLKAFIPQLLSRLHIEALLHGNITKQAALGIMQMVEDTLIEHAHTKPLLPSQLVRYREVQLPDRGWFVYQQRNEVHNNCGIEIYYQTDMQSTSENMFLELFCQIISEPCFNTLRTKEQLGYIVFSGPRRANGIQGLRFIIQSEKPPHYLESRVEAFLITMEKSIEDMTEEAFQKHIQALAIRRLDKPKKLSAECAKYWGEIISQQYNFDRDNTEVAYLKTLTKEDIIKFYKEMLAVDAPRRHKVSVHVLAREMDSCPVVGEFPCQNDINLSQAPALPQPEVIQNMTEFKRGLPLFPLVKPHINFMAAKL

[12] = molecular target: T2, Insulin-degrading enzyme; assay: activators of endogenous IDE in HEK cells, dose response, cell-based, fluorescence polarization (AID 588439); assay type: functional
[13] = tested on: HEK293; assay: HEK cell cytotoxicity by LDH release, dose response, cytotoxicity control for IDE activator project, fluorescence, HEK cells (AID 588440); assay type: functional, cell-based; settings: Homo sapiens;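 further: cytotoxicity by LDH release measuring loss of membrane integrity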
[14] = tested on: HEK293; assay: optical interference in Abeta FP readout, dose response, artefact control for IDE activator project, biochemical, fluorescence polarization (AID 588442); assay type: functional, cell-based; settings: Homo sapiens
[15] = molecular target: Serine/threonine-protein kinase TAO1 (Homo sapiens, UniProt Q7L7X3); assay type: functional
Serine/threonine-protein kinase TAO1, sequence (Q7L7X3 whole entry): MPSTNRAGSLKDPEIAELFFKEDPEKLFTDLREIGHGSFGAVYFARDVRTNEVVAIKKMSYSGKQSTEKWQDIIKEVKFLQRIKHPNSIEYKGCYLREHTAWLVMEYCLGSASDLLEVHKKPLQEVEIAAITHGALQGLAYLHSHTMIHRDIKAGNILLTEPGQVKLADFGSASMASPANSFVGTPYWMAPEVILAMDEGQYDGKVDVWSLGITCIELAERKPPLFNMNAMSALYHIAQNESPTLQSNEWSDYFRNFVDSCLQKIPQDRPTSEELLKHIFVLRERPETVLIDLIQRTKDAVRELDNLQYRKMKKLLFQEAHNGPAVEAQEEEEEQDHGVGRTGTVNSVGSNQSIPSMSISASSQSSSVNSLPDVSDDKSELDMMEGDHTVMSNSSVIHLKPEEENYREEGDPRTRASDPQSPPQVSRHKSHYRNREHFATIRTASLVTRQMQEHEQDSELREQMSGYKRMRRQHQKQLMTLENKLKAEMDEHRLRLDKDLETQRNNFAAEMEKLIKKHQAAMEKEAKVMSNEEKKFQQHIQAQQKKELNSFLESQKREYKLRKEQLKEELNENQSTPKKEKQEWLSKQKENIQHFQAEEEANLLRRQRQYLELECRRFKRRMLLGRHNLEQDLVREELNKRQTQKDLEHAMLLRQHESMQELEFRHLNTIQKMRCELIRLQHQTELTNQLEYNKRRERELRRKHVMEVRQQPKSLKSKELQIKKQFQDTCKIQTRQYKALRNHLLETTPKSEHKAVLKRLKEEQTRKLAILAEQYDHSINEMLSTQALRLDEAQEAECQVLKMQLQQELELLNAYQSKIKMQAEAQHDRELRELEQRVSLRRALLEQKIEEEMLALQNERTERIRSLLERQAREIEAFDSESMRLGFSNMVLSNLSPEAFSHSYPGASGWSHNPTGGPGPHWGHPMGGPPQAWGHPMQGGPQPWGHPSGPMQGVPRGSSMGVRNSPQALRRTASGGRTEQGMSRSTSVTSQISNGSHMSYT

[16] = molecular target: Leukocyte tyrosine kinase receptor (Homo sapiens, UniProt P29376); assay: Navigating the Kinome. Panel member name: LTK; assay type: functional
Leukocyte tyrosine kinase receptor, sequence (P29376 whole entry): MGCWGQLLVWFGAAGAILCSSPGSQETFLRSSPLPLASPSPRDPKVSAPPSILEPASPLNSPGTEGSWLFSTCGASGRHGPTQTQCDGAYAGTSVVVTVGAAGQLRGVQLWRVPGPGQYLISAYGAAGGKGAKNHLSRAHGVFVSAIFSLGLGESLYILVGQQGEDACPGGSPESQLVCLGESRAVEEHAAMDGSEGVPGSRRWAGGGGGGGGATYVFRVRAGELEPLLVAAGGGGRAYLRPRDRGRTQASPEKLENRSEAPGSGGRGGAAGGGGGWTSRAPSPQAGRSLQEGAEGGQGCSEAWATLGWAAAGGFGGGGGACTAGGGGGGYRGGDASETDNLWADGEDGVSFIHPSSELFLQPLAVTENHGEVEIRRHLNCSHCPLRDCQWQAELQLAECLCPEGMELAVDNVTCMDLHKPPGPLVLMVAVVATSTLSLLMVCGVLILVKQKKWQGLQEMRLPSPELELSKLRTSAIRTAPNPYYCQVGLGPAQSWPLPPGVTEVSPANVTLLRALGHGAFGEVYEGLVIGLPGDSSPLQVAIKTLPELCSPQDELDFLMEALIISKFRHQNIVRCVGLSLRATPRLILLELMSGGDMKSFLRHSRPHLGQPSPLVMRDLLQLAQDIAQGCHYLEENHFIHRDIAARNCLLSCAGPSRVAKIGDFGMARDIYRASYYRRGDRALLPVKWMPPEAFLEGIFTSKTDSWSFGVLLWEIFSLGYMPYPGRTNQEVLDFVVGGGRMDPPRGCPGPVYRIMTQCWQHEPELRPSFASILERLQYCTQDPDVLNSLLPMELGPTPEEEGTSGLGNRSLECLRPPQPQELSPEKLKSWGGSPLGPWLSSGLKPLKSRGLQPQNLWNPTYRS

- IC50 [1]: 10.1 µM (inactive)
- IC50 [2]: > 20 µM (inactive)
Structure (SMILES): COc1cc(OC)cc(Oc2c(Cl)cnn(Cc3cccc4ccccc34)c2=O)c1

Structure (SMILES): Cc1cccc2nc(-c3ccccc3)nc(N[C@@H](CO)c3ccccc3)c12
- CC50 [3]: 19 µM (active)
- EC50 [4]: > 112 µM (not active)
- EC50 [5]: > 112 µM (not active)
- IC50 [6]: 17 µM (active)

- IC50 [7]: 1.53 µM (not active)
- IC50 [8]: 18.8 µM (active)
- IC50 [9]: 20 µM (active)
- IC50 [10]: 40.2 µM (active)
Structure (SMILES): COc1ccc(/C=C2\C(=O)NC(=S)N2C(=O)c2ccc(C)cc2)cc1

Structure (SMILES): Cc1cc(Oc2ccc(C#N)cc2)nc(N2CCOCC2)n1
- EC50 [11]: > 54.7 µM (inactive)
- EC50 [12]: > 54.7 µM (inactive)
- IC50 [13]: > 89.2 µM (inactive)
- EC50 [14]: > 54.7 µM (inactive)

- Ki [15]: 1 µM (active)
- Ki [16]: 2.51 µM (active)
Structure (SMILES): O=C(O)C1CN(Cc2ccc(OCc3ccc(Cl)cc3Cl)cc2)C1

- IC50 [8]: 48.3 µM (active)
- IC50 [9]: > 100 µM (inactive)
- IC50 [10]: 45.6 µM (active)
Structure (SMILES): O=C(/C=C/c1cccs1)Nc1cccc(NC(=O)/C=C/c2cccs2)n1
